# According to article PMC12741935 (Alzheimer's & Dementia, 2025):
# pEC50: −log10 of the molar value.
# Experiments:
# [1] = test system: 14 DIV mouse hippocampal neurons; test: oAβ-induced spine loss: drebrin-positive spine density in cultured hippocampal neurons; type: cell-based
# Protocol: (§1) For in vitro study, all animal procedures were conducted in accordance with the National Institutes of Health Guide for the Care and Use of Laboratory Animals using protocols approved by the institutional animal care and use committee at Stanford University. Timed pregnant C57BL/6 mice (Strain code: 027) were purchased from Charles River Laboratories and delivered on embryonic day 15 (E15), after which E16 embryos were used for primary hippocampal cultures. Primary embryonic mouse hippocampal neuron cultures were plated on poly‐D‐lysine‐coated (10 µg/mL) glass cover slips at 40,000 to 50,000 cells per well in 12‐well plates (Corning Life Sciences). Cells were seeded in plating medium DMEM/F12 supplemented with 10% fetal bovine serum and 1 × penicillin/streptomycin (PS) for 2 hours. Medium was then changed to B‐27 Plus Neuronal Culture System (Invitrogen) supplemented with PS, and 2 mM glutamine.
# (§2) Immunofluorescence was performed as described previously.[24] Briefly, cultured hippocampal neurons were fixed in 4% formaldehyde for 20 minutes, permeabilized for 6 minutes in 80% ice‐cold methanol, and incubated with primary antibodies at 4°C overnight. Primary antibodies used were rabbit polyclonal MAP2 antibody for labeling dendrites (1:1000, #8707, Cell Signaling) and mouse monoclonal drebrin antibody for labeling dendritic spines (1:300; Cat#ADI‐NBA‐110, Enzo). Secondary antibodies consisted of donkey antirabbit or antimouse conjugated with either FITC or Cy3 (1:400; Jackson ImmunoResearch Laboratories, Inc.).
# (§3) The cultured hippocampal neurons were imaged using an oil‐based 63x objective on a Leica Stellaris 5 confocal microscope. The cell nucleus was stained with DAPI and imaged at a wavelength of 405 nm (blue channel), the dendrites stained by MAP2 were imaged at 488 nm wavelength (green channel), and the drebrin‐stained spines were imaged at a wavelength of 561 nm (red channel). Z‐stack images of neurons were acquired at a 1024 × 1024 resolution, a zoom factor of 1.0, and a z‐step size of 0.5 µm. The number of steps for every z‐stack picture of a neuron were determined by the size of the neuron in the z‐plane, to ensure that the entirety of a neuron is captured in the picture. The areas to be imaged were selected systematically, starting from the top‐left region to proceeding to the bottom‐right region of a coverslip. For imaging, preference was given to field of views containing isolated neurons versus clustered neurons.
# For quantification of drebrin‐positive spines in vitro, the images were analyzed using Imaris 9.3 software. Each image consisted of one major neuron and the “filaments” option in Imaris was applied to manually trace along the dendrites of every neuron, by placing starting and seed points at the beginning and along the length of the dendrites, respectively. The largest dendrite diameter (i.e., Starting Point) was set at 9.00 µm threshold while the thinnest dendrite diameter (i.e., Seed Point) was set at 1.00 µm threshold. After manually tracing the dendrites, the spines along the dendrites were assessed using the automatic “spine detection” function in Imaris. […] The spine density (number of spines/dendrite length) was then calculated for each neuron. All image acquisition and quantification were performed in a blind manner. For in vitro quantification of dendrite degeneration, Neurolucida (MBF Biosciences) in the manual mode was used to measure the total dendritic length, numbers of dendrites, and dendritic complexity for each neuron.
# [2] = test system: 14 DIV hippocampal neurons; test: oTau-induced dendrite degeneration (MAP2 dendrite length, number) in cultured hippocampal neurons; type: cell-based, mouse; conditions: oTau 50 nM + inhibitor 24 h vs oTau alone, NVS-PAK1-1 10 nM, AZ 1 nM, G 5 nM
# Protocol: as §1, §2, §3
# For quantification of drebrin‐positive spines in vitro, the images were analyzed using Imaris 9.3 software. Each image consisted of one major neuron and the “filaments” option in Imaris was applied to manually trace along the dendrites of every neuron, by placing starting and seed points at the beginning and along the length of the dendrites, respectively. The largest dendrite diameter (i.e., Starting Point) was set at 9.00 µm threshold while the thinnest dendrite diameter (i.e., Seed Point) was set at 1.00 µm threshold. After manually tracing the dendrites, the spines along the dendrites were assessed using the automatic “spine detection” function in Imaris. The thinnest spine diameter was set at 0.80 µm threshold while the maximum spine length was set at 5.00 µm. The spine density (number of spines/dendrite length) was then calculated for each neuron. All image acquisition and quantification were performed in a blind manner. For in vitro quantification of dendrite degeneration, Neurolucida (MBF Biosciences) in the manual mode was used to measure the total dendritic length, numbers of dendrites, and dendritic complexity for each neuron.
# [3] = test system: dendritic spines, layer V of somatosensory cortex; test: Golgi staining, dendritic spine density in somatosensory cortex of 5xFAD mice; type: in vivo
# Protocol: Drug concentrations were prepared immediately before dosing each day. […] The right hemisphere was subjected to Golgi staining as described previously[29] to assess dendrite morphology and dendritic spine density. Briefly, frozen mice brains were rapidly immersed in a modified Golgi-Cox staining solution (developed and provided by […] Jing and Francis Lee, Cornell University) for 9 days at room temperature in the dark. The brains were then incubated in 30% sucrose in dH2O at 4°C for 72 hours, with the solution refreshed after the first 12 hours. Next, 150 μm sections were prepared using a vibratome and mounted onto slides coated with 0.3% gelatin. After a brief drying period, slides were dipped three times in 40% sucrose and air dried for 72 hours in the dark. After dH2O washes, sections were developed using a staining solution, rinsed again, dehydrated through a graded ethanol series, cleared in xylene, and cover slipped with DPX mounting medium. Brain sections stained using the Golgi-Cox method were imaged with a Zeiss brightfield microscope equipped with the Neurolucida software (MBF Biosciences). The Neurolucida software was used to acquire neuron pictures, trace neuronal dendrites, and quantify dendritic spine density. […] After a neuron was selected, the 100 × oil immersion objective was used to perform real time dendritic tracing using Neurolucida's live mode. The soma was outlined using the “cell body” option followed by manual tracing of apical and basal dendrites using the respective “dendrite tracing” options. After the tracing was finished, spines were manually marked along the dendrites. A.DAT file was saved for each neuron post completion of dendrite and spine tracing and imported into Neurolucida Explorer, which is used to perform quantitative structural analysis and dendrite length and number of spines data for each neuron is exported. The spine density is calculated by dividing number of spines/dendrite length separately for apical and basal dendrites for each neuron.
# [4] = young male 5xFAD, 100 mg/kg BID PO 12 weeks
smiles,measurement,setting,value
"CC(C)NC(=O)N1CC[C@H](NC2=Nc3cc(F)ccc3N(CC(F)F)c3ccc(Cl)cc32)C1 [NVS‐PAK1‐1, (S)‐3‐([2‐chloro‐5‐(2,2‐difluoroethyl)‐8‐fluoro‐5H‐dibenzo[b,e][1,4]diazepin‐11‐yl]amino)‐N‐isopropylpyrrolidine‐1‐carboxamide]",pEC50,"[1]; Mus musculus, Hippocampal neuron, 24 h, oAβ 1 µM, 24 h, 14 DIV neurons, read-out: EC50, concentration at which NVS-PAK1-1 reduced oAβ-induced loss of spine density by 50%",8.70
same,drebrin-stained spine density (spine counts per µm of dendritic length),"[1]; oAβ 1 µM + inhibitor 24 h vs oAβ alone, NVS-PAK1-1 10 nM, NVS-PAK1-C 10 nM, AZ13705339 1 nM, G5555 5 nM",significantly higher spine counts
same,dendrite number per neuron,[2],significantly increased dendrite number per neuron
same,total dendrite length per neuron,[2]; PAK1-C 10 nM,preserved dendrite length
same,"apical dendritic spine density, somatosensory cortex","[3]; female 5xFAD, 100 mg/kg BID PO 12 weeks from 3 to 6 months of age, P < 0.01",prevented the loss
same,"basal dendritic spine density, somatosensory cortex","[3]; female 5xFAD, 100 mg/kg BID PO 12 weeks from 3 to 6 months of age, P < 0.05",prevented the loss
same,"apical spine density, somatosensory cortex",[3]; [4],no significant difference
same,"basal spine density, somatosensory cortex",[3]; [4],no significant difference
